Like-named read-outs stand apart in the source and are kept apart here.
What was measured:
[1] = system: doxorubicin-induced cerebral oxidative stress in mice; experiment: In vivo assay of cerebral oxidative stress induced in mice by doxorubicin (model and oxidized animals); settings: for inhibition in vivo at 50 mg/kg / change in vivo at 50 mg/kg: Mus musculus; for inhibition in vivo at 50 mg/kg: read-out: inhibition of the doxorubicin effect
In short: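 Mice (5/arm) dosed 50 mg/kg compound IP days 0–2; one arm also got doxorubicin 16.7 mg/kg IP after the day-0 dose. Brains collected day 3; homogenate (pH 7.4) assayed colorimetrically for oxidized protein, GSH, CAT, SOD, GST, GPx, normalized to protein. Effect: % inhibition of doxorubicin-induced change.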

[2] = Brain-to-plasma concentration ratio in mice; assay type: in vivo, Female CD-1 mice; settings: female, CD-1, mouse, ip, 25 mg/kg intraperitoneal, area under the curve of brain and plasma concentrations 0 to 60 minutes, read-out: B/P ratio
[3] = Acid dissociation constants (pKa) by titration; assay type: physicochemical; settings: pH at semi-neutralization point of titration with 0.1 N NaOH or HCl
healthy animals = experiment: Effect of the compounds on healthy animals (same in vivo assay, cerebral oxidative parameters); design: species or system mice; settings: healthy mice; for Average % variation with respect to the vehicle: 50 mg/kg IP for three consecutive days, mean over all parameters, D = doxorubicin alone, 50 mg/kg; for Brain/BWi / CAT/pr / GPX/pr / GSH/pr / GST/pr / Prot. Hmg / Prot. Ox/pr / SOD/pr: 50 mg/kg IP x3 days, percentage change relative to the vehicle
In short: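 Mice (10 per group) received compound 50 mg/kg IP on days 0–2, with half also given doxorubicin 16.7 mg/kg IP on day 0; brains were collected on day 3. Brain homogenates (pH 7.4) were assayed colorimetrically for […], protein, oxidized protein, GSH, CAT, SOD, GST and GPx. Result is mean % change across all parameters versus vehicle.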

[4] = ip, oxidized mice, % inhibition relative to change due to doxorubicin alone, vs its own, read-out: Brain/BWi its own
[5] = ip, oxidized mice, % inhibition relative to change due to doxorubicin alone, vs its own, read-out: CAT/pr its own
[6] = ip, oxidized mice, % inhibition relative to change due to doxorubicin alone, vs its own, read-out: GPX/pr its own
[7] = ip, oxidized mice, % inhibition relative to change due to doxorubicin alone, vs its own, read-out: GSH/pr its own
[8] = ip, oxidized mice, % inhibition relative to change due to doxorubicin alone, vs its own, read-out: GST/pr its own
[9] = ip, oxidized mice, % inhibition relative to change due to doxorubicin alone, vs its own, read-out: Prot. Hmg its own
[10] = ip, oxidized mice, % inhibition relative to change due to doxorubicin alone, vs its own, read-out: Prot. Ox/pr its own
[11] = ip, oxidized mice, % inhibition relative to change due to doxorubicin alone, vs its own, read-out: SOD/pr its own
[12] = ip, oxidized mice, % inhibition relative to change due to doxorubicin alone, vs vehicle, read-out: Brain/BWi vehicle
[13] = ip, oxidized mice, % inhibition relative to change due to doxorubicin alone, vs vehicle, read-out: CAT/pr vehicle
[14] = ip, oxidized mice, % inhibition relative to change due to doxorubicin alone, vs vehicle, read-out: GPX/pr vehicle
[15] = ip, oxidized mice, % inhibition relative to change due to doxorubicin alone, vs vehicle, read-out: GSH/pr vehicle
[16] = ip, oxidized mice, % inhibition relative to change due to doxorubicin alone, vs vehicle, read-out: GST/pr vehicle
[17] = ip, oxidized mice, % inhibition relative to change due to doxorubicin alone, vs vehicle, read-out: Prot. Hmg vehicle
[18] = ip, oxidized mice, % inhibition relative to change due to doxorubicin alone, vs vehicle, read-out: Prot. Ox/pr vehicle
[19] = ip, oxidized mice, % inhibition relative to change due to doxorubicin alone, vs vehicle, read-out: SOD/pr vehicle
[20] = oxidized mice, 50 mg/kg IP x3 days + doxorubicin, computed as a function of its own (healthy, compound only), read-out: mean % effect relative to doxorubicin alone, all parameters (Its own)

SMILES | change in vivo at 50 mg/kg [1, 4] | change in vivo at 50 mg/kg [1, 5] | change in vivo at 50 mg/kg [1, 6] | change in vivo at 50 mg/kg [1, 7] | change in vivo at 50 mg/kg [1, 8] | change in vivo at 50 mg/kg [1, 9] | change in vivo at 50 mg/kg [1, 10] | change in vivo at 50 mg/kg [1, 11] | change in vivo at 50 mg/kg [1, 12] | change in vivo at 50 mg/kg [1, 13] | change in vivo at 50 mg/kg [1, 14] | change in vivo at 50 mg/kg [1, 15] | change in vivo at 50 mg/kg [1, 16] | change in vivo at 50 mg/kg [1, 17] | change in vivo at 50 mg/kg [1, 18] | change in vivo at 50 mg/kg [1, 19] | change in vivo at 50 mg/kg [1, 20] | Kp [2] | pKa1 [3] | pKa2 [3] | further results
CC1(C)CC(=O)C(C2CCCCN2O)C(=O)C1 (stereo not shown) [(3), 2-(1-hydroxypiperidin-2-yl)-5,5-dimethylcyclohexane-1,3-dione] | 7.2% | -87.1% | -108% | -11.2% | -50.5% | -125% | 195% | 30.8% | -53.6% | -23.5% | -91.9% | -49.6% | -110% | -114% | -45.9% | 86.7% | -76.6% | > 0.1 | 3.47 | 6.92 | inhibition in vivo at 50 mg/kg ([1]; ip, overall, with respect to the vehicle): ≥ 50%; inhibition of the doxorubicin effect ([1]; overall, compared with its own vehicle): at the level of edaravone; mean % effect relative to doxorubicin alone, all parameters (Vehicle) ([1]; oxidized mice, 50 mg/kg IP x3 days + doxorubicin, computed as a function of the vehicle): -50.3%; Average % variation with respect to the vehicle (healthy animals): did not significantly alter the parameters; Average % variation with respect to the vehicle (healthy animals; listed as V+(3)): -0.2%; Brain/BWi (healthy animals): 1.4%; CAT/pr (healthy animals): -10.5%; GPX/pr (healthy animals): -1.8%; GSH/pr (healthy animals): 2.0%; GST/pr (healthy animals): 4.1%; Prot. Hmg (healthy animals): 2.5%; Prot. Ox/pr (healthy animals): -8.6%; SOD/pr (healthy animals): -2.8%
CC1=NN(c2ccccc2)C(=O)C1C1COCCN1O (stereo not shown) [(11), 4-(4-hydroxymorpholin-3-yl)-3-methyl-1-phenyl-1H-pyrazol-5(4H)-one] | -23.2% | 36.4% | -7.1% | -21.6% | -2.2% | -15.7% | -84.3% | -2.1% | 11.6% | 60.6% | 9.1% | -16% | 1.1% | -2.4% | -69.8% | 18.9% | -64.7% | > 0.1 | 3.31 | 6.92 | inhibition in vivo at 50 mg/kg ([1]; ip, overall, compared with its own vehicle): ~65%; Average % variation with respect to the vehicle (healthy animals): did not significantly alter the parameters; Average % variation with respect to the vehicle (healthy animals; listed as V+(11)): -2.0%; Brain/BWi (healthy animals): -2.7%; CAT/pr (healthy animals): -1.6%; GPX/pr (healthy animals): -3.3%; GSH/pr (healthy animals): -1.2%; GST/pr (healthy animals): -0.9%; Prot. Hmg (healthy animals): 1.7%; Prot. Ox/pr (healthy animals): 1.5%; SOD/pr (healthy animals): -33. %

— EP2345639A1, “Cyclic hydroxylamine derivatives, their preparation and use as antioxidants” (ABIOGEN PHARMA S.p.A., priority 2009, dated 2011)
